Measured values published in ChEMBL document CHEMBL5344411, “Phenotypic screening-based drug discovery of furan-2-carboxylic acid derivatives for the amelioration of type 2 diabetes mellitus (T2DM)” (Eur J Med Chem, 2023).
Active and inactive are the calls of the source. The rule behind the calls is not given here.

How the values were obtained:
[1] = tested on: Hepatocyte; assay: Inhibition of gluconeogenesis in Sprague-Dawley rat hepatocytes at 1 uM incubated for 1.5 hrs followed by sodium pyruvate and sodium lactate addition and measured after 4 hrs by colorimetric analysis relative to control; type: functional; conditions: time 5.5 hrs
[2] = tested on: Hepatocyte; assay: Inhibition of gluconeogenesis in Sprague-Dawley rat hepatocytes at 0.3 uM incubated for 1.5 hrs followed by sodium pyruvate and sodium lactate addition and measured after 4 hrs by colorimetric analysis relative to control; type: functional; conditions: time 5.5 hrs
[3] = tested on: Mus musculus; assay: Inhibition of gluconeogenesis in CD-1 mouse assessed as decrease in blood glucose level at 50 mg/kg administered via gavage at 2 hrs prior to pyruvate sodium challenge and measured for 2 hrs by pyruvate tolerance test; type: functional, organism-based; conditions: time 4.0 hrs
[4] = tested on: Hepatocyte; assay: Inhibition of gluconeogenesis in Sprague-Dawley rat hepatocytes at 10 uM incubated for 1.5 hrs followed by sodium pyruvate and sodium lactate addition and measured after 4 hrs by colorimetric analysis relative to control; type: functional; conditions: time 5.5 hrs
[5] = tested on: Hepatocyte; assay: Inhibition of gluconeogenesis in Sprague-Dawley rat hepatocytes at 3 uM incubated for 1.5 hrs followed by sodium pyruvate and sodium lactate addition and measured after 4 hrs by colorimetric analysis relative to control; type: functional; conditions: time 5.5 hrs
[6] = tested on: Mus musculus; assay: Inhibition of gluconeogenesis in CD-1 mouse assessed as decrease in blood glucose level at 50 mg/kg administered via gavage at 1 hr prior to pyruvate sodium challenge and measured for 2 hrs by pyruvate tolerance test; type: functional, organism-based; conditions: time 3.0 hrs

Structure (SMILES) | fold change (FC) [4] | other results
CCCc1ccc(OCc2ccc(C(=O)O)o2)c(OC)c1 | 0.65 | fold change (FC) [1]: 1.05; fold change (FC) [2]: 1.19; inhibition [3]: Active; fold change (FC) [5]: 0.75
CCCc1ccc(OCc2ccc(C(=O)O)o2)c(OCC2CC2)c1 | 1.16 | –
COc1cc(CC(=O)N(C)C)ccc1OCc1ccc(C(=O)O)o1 | 1.15 | –
CCCc1ccc(OCc2ccc(C(=O)O)o2)c(OCC)c1 | 0.77 | –
COc1cc(Cl)ccc1OCc1ccc(C(=O)O)o1 | 0.33 | fold change (FC) [1]: 0.78; inhibition [6]: Active; fold change (FC) [2]: 1.02; fold change (FC) [5]: 0.51
C=CCc1ccc(OCc2ccc(C(=O)Nc3cccc(C)c3)o2)c(OC)c1 | 0.83 | –
CCC(=O)c1ccc(OCc2ccc(C(=O)O)o2)c(OC)c1 | 0.79 | –
CCCc1ccc(OCc2ccc(C(=O)O)o2)c(NC(C)=O)c1 | 0.95 | –
C=CCc1ccc(OCc2ccc(C(=O)N3CCOCC3)o2)c(OC)c1 | 0.97 | –
CCCc1ccc(OCc2ccc(C(=O)O)o2)c(OCCOC)c1 | 0.72 | –
C=CCc1ccc(OCc2ccc(C(=O)NCc3ccccc3)o2)c(OC)c1 | 0.97 | –
C=CCc1ccc(OCc2ccc(C(=O)NCCO)o2)c(OC)c1 | 0.82 | –
C=CCc1ccc(OC)c(OCc2ccc(C(=O)O)o2)c1 | 1 | –
C=CCc1ccc(OCc2cccc(C(=O)O)c2)c(OC)c1 | 1.06 | –
C=CCc1ccc(OCc2ccc(C(=O)O)s2)c(OC)c1 | 1.05 | –
C/C=C/c1ccc(OCc2ccc(C(=O)O)o2)c(OC)c1 | 0.93 | –
CCCc1ccc(OCc2ccc(C(=O)O)o2)c(OC(C)C)c1 | 1.25 | –
CCCc1ccc(OCc2ccc(C(=O)O)o2)c(NC)c1 | 0.41 | fold change (FC) [1]: 0.81; inhibition [6]: Active; fold change (FC) [2]: 1.02; fold change (FC) [5]: 0.56
